Measured values taken from patent publication US9296734B2 (AMGEN INC., priority 2013, dated 2016).
Like-named read-outs stand apart in the source and are kept apart here. Values belong to the molecule of their own block, whether it stands above or below them.

Legend:
[1] = molecular target: Beta Secretase enzyme (BACE) (Homo sapiens (Human), UniProt P56817); assay: In vitro enzymatic BACE FRET assay; type: biochemical; details: read-out: BACE 1 FRET assay IC50
Procedure: In Vitro Enzymatic BACE FRET (Fluorescence Resonance Energy Transfer) Assay (Enzyme Assay Data in the Example Table I)
The assay buffer used in this screen is 0.05 M acetate, pH 4.2, 10% DMSO final, 100 uM genapol (which is a nonionic detergent, below its Critical Micelle Concentration). […] This assay is effectively started by the addition of FRET substrate (50 nM) and the combination is incubated for one hour. The FRET assay is terminated with by addition of Tris buffer, which raises the pH to neutrality, and the fluorescence is determined. The FRET substrate is a peptide with commercially available fluorophore and quencher, on opposite sides of the BACE cleavage site.

[2] = tested on: Aβ40 in conditioned medium of cells stably expressing Amyloid Precursor Protein (APP); assay: In vitro BACE cell-based assay (Aβ40 sandwich ELISA); details: Homo sapiens
Summary of the method: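 Secreted Aβ40 was quantified by sandwich ELISA (pAb40 capture, biotinylated 6E10 detection, Europium time-resolved fluorescence). IC50 derived from percent inhibition versus concentration.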

[3] = molecular target: Cathepsin D (Cat D) (Homo sapiens (Human), UniProt P07339); assay: In vitro enzymatic Cathepsin D (Cat D) FRET assay; type: biochemical; details: read-out: CatD IC50
Chain of Cathepsin D (Cat D) (P07339 65-412, species assumed): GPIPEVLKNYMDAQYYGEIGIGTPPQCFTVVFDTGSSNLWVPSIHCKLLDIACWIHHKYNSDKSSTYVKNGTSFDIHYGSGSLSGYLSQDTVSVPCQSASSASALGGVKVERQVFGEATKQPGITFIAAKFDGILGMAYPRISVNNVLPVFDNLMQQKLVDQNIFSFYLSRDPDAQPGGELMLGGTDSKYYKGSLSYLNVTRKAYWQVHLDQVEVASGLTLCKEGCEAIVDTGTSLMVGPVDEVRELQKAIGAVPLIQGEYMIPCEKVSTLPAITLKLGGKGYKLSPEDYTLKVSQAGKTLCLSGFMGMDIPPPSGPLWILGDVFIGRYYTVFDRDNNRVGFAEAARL
Summary of the method: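 CHO-expressed recombinant Cat D cleaves a fluorophore/quencher FRET peptide (20 nM) in 0.05 M citrate pH 3.5, 5 mM CHAPS, 10% DMSO final, over 1 h. Tris addition neutralizes pH to stop the reaction; fluorescence read at excitation 500 nm, emission 580 nm.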

[4] = average IC50, BACE enzyme assay
[5] = HEK293, average IC50, HEK cell assay, read-out: HEK cell assay IC50
[6] = average IC50, cathepsin D enzyme assay
[7] = HEK293, read-out: HEK cell assay IC50
[8] = HEK293, average IC50, HEK cells, read-out: HEK cell assay IC50
[9] = HEK293, HEK cells, average, read-out: HEK cell assay IC50

Chain of Beta Secretase enzyme (BACE) (P56817 46-501): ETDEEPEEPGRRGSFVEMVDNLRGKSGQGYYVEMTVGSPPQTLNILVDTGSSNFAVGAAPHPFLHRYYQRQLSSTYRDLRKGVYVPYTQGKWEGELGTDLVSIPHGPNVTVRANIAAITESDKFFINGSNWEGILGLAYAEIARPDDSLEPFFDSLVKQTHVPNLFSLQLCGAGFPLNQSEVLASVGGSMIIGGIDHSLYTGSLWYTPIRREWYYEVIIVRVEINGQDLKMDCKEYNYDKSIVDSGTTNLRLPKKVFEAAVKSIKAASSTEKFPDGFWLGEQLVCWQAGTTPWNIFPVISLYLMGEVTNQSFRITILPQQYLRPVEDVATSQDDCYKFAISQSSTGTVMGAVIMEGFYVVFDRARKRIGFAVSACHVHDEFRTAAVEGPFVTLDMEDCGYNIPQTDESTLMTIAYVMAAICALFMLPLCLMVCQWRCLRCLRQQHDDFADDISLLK

- IC50 [1, 4]: > 40 µM
- IC50 [2, 5]: > 15.6 µM
- IC50 [3, 6]: > 133 µM
SMILES: NC1=N[C@](CF)(c2cc(-c3ccc4ccc(F)cc4n3)ccc2F)C[C@@H](C(F)(F)F)O1 [Example 117, (4S,6S)-4-(2-fluoro-5-(7-fluoroquinolin-2-yl)phenyl)-4-(fluoromethyl)-6-(trifluoromethyl)-5,6-dihydro-4H-1,3-oxazin-2-amine]

SMILES: COc1cc(C#N)cnc1C(=O)Nc1cc(F)c(F)c([C@]2(C)C[C@@H](C(F)(F)F)OC(N)=N2)c1 [Example 168, N-(3-((4S,6S)-2-amino-4-methyl-6-(trifluoromethyl)-5,6-dihydro-4H-1,3-oxazin-4-yl)-4,5-difluorophenyl)-5-cyano-3-methoxypicolinamide]
- IC50 [1, 4]: 0.051 µM
- IC50 [2, 7]: 0.0061 µM
- IC50 [3, 6]: > 400 µM

SMILES: N#Cc1cccnc1Oc1ccc(F)c([C@]2(CF)C[C@@H](C(F)(F)F)OC(N)=N2)c1 [Example 107, 2-(3-((4S,6S)-2-amino-4-(fluoromethyl)-6-(trifluoromethyl)-5,6-dihydro-4H-1,3-oxazin-4-yl)-4-fluorophenoxy)nicotinonitrile]
- IC50 ([1]; average IC50): 5.87 µM
- IC50 [2, 7]: 3.61 µM
- IC50 ([3]; average IC50): 1400 µM

- IC50 [1, 4]: 0.0176 µM
- IC50 [2, 5]: 0.0093 µM
- IC50 [3, 6]: 666 µM
SMILES: C#CCOc1ccc(C(=O)Nc2ccc(F)c([C@]3(C)C[C@@H](C(F)(F)F)OC(N)=N3)c2)nc1 [Example 28, N-(3-((4S,6S)-2-amino-4-methyl-6-(trifluoromethyl)-5,6-dihydro-4H-1,3-oxazin-4-yl)-4-fluorophenyl)-5-(prop-2-yn-1-yloxy)picolinamide]

- IC50 ([1]; average IC50): 0.0751 µM
- IC50 [2, 8]: 0.111 µM
- IC50 ([3]; average IC50): > 400 µM
SMILES: C[C@@]1(c2cc(NC(=O)c3ncc(Cl)cc3Cl)cnc2F)C[C@@H](C(F)(F)F)OC(N)=N1 [Example 68, N-(5-((4S,6S)-2-amino-4-methyl-6-(trifluoromethyl)-5,6-dihydro-4H-1,3-oxazin-4-yl)-6-fluoropyridin-3-yl)-3,5-dichloropicolinamide]

- IC50 [1, 4]: 6.49 µM
- IC50 [2, 5]: 4.34 µM
- IC50 [3, 6]: 469 µM
SMILES: NC1=N[C@](CF)(c2cc(Nc3ccnc(Br)c3)ccc2F)C[C@@H](C(F)(F)F)O1 [Example 17, (4S,6S)-4-(5-((2-bromopyridin-4-yl)amino)-2-fluorophenyl)-4-(fluoromethyl)-6-(trifluoromethyl)-5,6-dihydro-4H-1,3-oxazin-2-amine]

- IC50 [1, 4]: 0.03 µM
- IC50 [2, 5]: 0.275 µM
- IC50 [3, 6]: > 4.94 µM
SMILES: C[C@@]1(c2cc(Nc3ncc(F)c4cc(C#N)cnc34)cc(F)c2F)C[C@@H](C(F)(F)F)OC(N)=N1 [Example 177, 8-((3-((4S,6S)-2-amino-4-methyl-6-(trifluoromethyl)-5,6-dihydro-4H-1,3-oxazin-4-yl)-4,5-difluorophenyl)amino)-5-fluoro-1,7-naphthyridine-3-carbonitrile]

- IC50 ([1]; average): 0.091 µM
- IC50 [2, 9]: 0.029 µM
- IC50 ([3]; average): > 400 µM
SMILES: COc1cc(Cl)cnc1C(=O)Nc1cc(C)c(F)c([C@]2(CF)C[C@@H](C(F)(F)F)OC(N)=N2)c1 [Example 222, N-(3-((4S,6S)-2-amino-4-(fluoromethyl)-6-(trifluoromethyl)-5,6-dihydro-4H-1,3-oxazin-4-yl)-4-fluoro-5-methylphenyl)-5-chloro-3-methoxypicolinamide]

SMILES: COc1cnc(C(=O)Nc2cc(Cl)c(F)c([C@]3(C)C[C@@H](C(F)(F)F)OC(N)=N3)c2)cn1 [Example 208, N-(3-((4S,6S)-2-amino-4-methyl-6-(trifluoromethyl)-5,6-dihydro-4H-1,3-oxazin-4-yl)-5-chloro-4-fluorophenyl)-5-methoxypyrazine-2-carboxamide]
- IC50 ([1]; average): 0.012 µM
- IC50 [2, 7]: 0.003 µM
- IC50 ([3]; average): 394 µM

- IC50 ([1]; average IC50): 0.121 µM
- IC50 [2, 8]: 0.0101 µM
- IC50 ([3]; average IC50): > 400 µM
SMILES: Cc1cc(C#N)cnc1C(=O)Nc1cc([C@]2(C)C[C@@H](C(F)(F)F)OC(N)=N2)c(=O)n(C)c1 [Example 150, N-(5-((4S,6S)-2-amino-4-methyl-6-(trifluoromethyl)-5,6-dihydro-4H-1,3-oxazin-4-yl)-1-methyl-6-oxo-1,6-dihydropyridin-3-yl)-5-cyano-3-methylpicolinamide]

- IC50 ([1]; average IC50): 0.114 µM
- IC50 [2, 8]: 0.587 µM
- IC50 ([3]; average IC50): 5520 µM
SMILES: COc1ccc(C(=O)Nc2cnc(F)c([C@]3(CF)C[C@@H](C(F)(F)F)OC(N)=N3)c2)nc1 [Example 142, N-(5-((4S,6S)-2-amino-4-(fluoromethyl)-6-(trifluoromethyl)-5,6-dihydro-4H-1,3-oxazin-4-yl)-6-fluoropyridin-3-yl)-5-methoxypicolinamide]

- IC50 ([1]; average): 0.049 µM
- IC50 [2, 9]: 0.057 µM
- IC50 ([3]; average): > 400 µM
SMILES: Cc1cc(Nc2ncnc3cc(Cl)cnc23)cc([C@]2(CF)C[C@@H](C(F)(F)F)OC(N)=N2)c1F [Example 230, (4S,6S)-4-(5-((7-chloropyrido[3,2-d]pyrimidin-4-yl)amino)-2-fluoro-3-methylphenyl)-4-(fluoromethyl)-6-(trifluoromethyl)-5,6-dihydro-4H-1,3-oxazin-2-amine]

- IC50 [1, 4]: 7.88 µM
- IC50 [2, 5]: 3.16 µM
- IC50 [3, 6]: 316 µM
SMILES: NC1=N[C@](CF)(c2cc(Nc3cc(-c4ccccc4)ccn3)ccc2F)C[C@@H](C(F)(F)F)O1 [Example 115, (4S,6S)-4-(2-fluoro-5-((4-phenylpyridin-2-yl)amino)phenyl)-4-(fluoromethyl)-6-(trifluoromethyl)-5,6-dihydro-4H-1,3-oxazin-2-amine]

- IC50 [1, 4]: > 40 µM
- IC50 [2, 5]: > 15.6 µM
- IC50 [3, 6]: 758 µM
SMILES: NC1=N[C@](CF)(c2cc(-c3ncc4cc(F)ccc4n3)ccc2F)C[C@@H](C(F)(F)F)O1 [Example 114, (4S,6S)-4-(2-fluoro-5-(6-fluoroquinazolin-2-yl)phenyl)-4-(fluoromethyl)-6-(trifluoromethyl)-5,6-dihydro-4H-1,3-oxazin-2-amine]

- IC50 ([1]; average): 0.097 µM
- IC50 [2, 9]: 0.549 µM
- IC50 ([3]; average): 511 µM
SMILES: Cc1cc(OCC2CC2)cnc1C(=O)Nc1cc(F)c(F)c([C@]2(C)C[C@@H](C(F)(F)F)OC(N)=N2)c1 [Example 191, N-(3-((4S,6S)-2-amino-4-methyl-6-(trifluoromethyl)-5,6-dihydro-4H-1,3-oxazin-4-yl)-4,5-difluorophenyl)-5-(cyclopropylmethoxy)-3-methylpicolinamide]

- IC50 [1, 4]: 0.023 µM
- IC50 [2, 5]: 0.535 µM
- IC50 [3, 6]: > 400 µM
SMILES: NC1=N[C@](CF)(c2cc(Nc3nccc4cc(Cl)cnc34)cc(F)c2F)C[C@@H](C(F)(F)F)O1 [Example 161, (4S,6S)-4-(5-((3-chloro-1,7-naphthyridin-8-yl)amino)-2,3-difluorophenyl)-4-(fluoromethyl)-6-(trifluoromethyl)-5,6-dihydro-4H-1,3-oxazin-2-amine]

- IC50 [1, 4]: 0.026 µM
- IC50 [2, 5]: 0.087 µM
- IC50 [3, 6]: 2750 µM
SMILES: NC1=N[C@](CF)(c2cc(NC(=O)c3ccc(Cl)cn3)cc(F)c2F)C[C@@H](C(F)(F)F)O1 [Example 152, N-(3-((4S,6S)-2-amino-4-(fluoromethyl)-6-(trifluoromethyl)-5,6-dihydro-4H-1,3-oxazin-4-yl)-4,5-difluorophenyl)-5-chloropicolinamide]

- IC50 ([1]; average IC50): 0.0329 µM
- IC50 [2, 8]: 0.042 µM
- IC50 ([3]; average IC50): > 400 µM
SMILES: C[C@@]1(c2cc(Nc3nccc4cc(Cl)cnc34)cnc2F)C[C@@H](C(F)(F)F)OC(N)=N1 [Example 76, (4S,6S)-4-(5-((3-chloro-1,7-naphthyridin-8-yl)amino)-2-fluoropyridin-3-yl)-4-methyl-6-(trifluoromethyl)-5,6-dihydro-4H-1,3-oxazin-2-amine]

- IC50 ([1]; average IC50): 0.021 µM
- IC50 [2, 8]: 0.057 µM
- IC50 ([3]; average IC50): > 133 µM
SMILES: N#Cc1cnc2c(Nc3ccc(F)c([C@]4(CF)C[C@@H](C(F)(F)F)OC(N)=N4)c3)nccc2c1 [Example 22, 8-((3-((4S,6S)-2-amino-4-(fluoromethyl)-6-(trifluoromethyl)-5,6-dihydro-4H-1,3-oxazin-4-yl)-4-fluorophenyl)amino)-1,7-naphthyridine-3-carbonitrile]

- IC50 ([1]; average): 0.011 µM
- IC50 [2, 9]: 0.007 µM
- IC50 ([3]; average): 628 µM
SMILES: C[C@@]1(c2cc(NC(=O)c3nn(C(F)F)cc3Cl)cc(F)c2F)C[C@@H](C(F)(F)F)OC(N)=N1 [Example 196, N-(3-((4S,6S)-2-amino-4-methyl-6-(trifluoromethyl)-5,6-dihydro-4H-1,3-oxazin-4-yl)-4,5-difluorophenyl)-4-chloro-1-(difluoromethyl)-1H-pyrazole-3-carboxamide]

- IC50 ([1]; average): 0.016 µM
- IC50 [2, 9]: 0.055 µM
- IC50 ([3]; average): 568 µM
SMILES: Cc1cc(C#N)cnc1C(=O)Nc1cc(F)c(F)c([C@]2(CF)C[C@@H](C(F)(F)F)OC(N)=N2)c1 [Example 232, N-(3-((4S,6S)-2-amino-4-(fluoromethyl)-6-(trifluoromethyl)-5,6-dihydro-4H-1,3-oxazin-4-yl)-4,5-difluorophenyl)-5-cyano-3-methylpicolinamide]
